Read-outs that look alike come from different tables or passages of the source.
Legend:
p53 = assay: Nuclear p53 level by immunofluorescence staining with Pab1801; type: cell-based, human; conditions: MCF-7 cells, 200 nM, 20 hr
DNA synthesis = DNA synthesis by BrdU incorporation normalized to viable cells; type: cell-based; conditions: cell lines that do not undergo significant apoptosis, 100 nM, 20 hr (FIG. 15)
MDM2 [1] = assay: MDM2 protein level by immunoprecipitation/Western blot in oligonucleotide-treated cells; type: cell-based, human; conditions: JAR cells, 18 h, Lipofectin 7 μg/ml, Western blot (FIG. 2A)
JAR cells = assay: Induction of apoptosis / cell death in JAR cells; type: cell-based, human; conditions: 400 nM, 30 h, Lipofectin
Procedure: JAR cells (ATCC) were grown in DMEM medium supplemented with 1% FBS according to standard cell culture techniques. Cells were then treated for 30 hours with growth medium containing 400 nM of either antisense oligonucleotide AS5 (SEQ ID NO:28) complementary to a portion of MDM2-encoding RNA or control oligonucleotide M4 (SEQ ID NO:5), and 7 μg/ml lipofectin (Gibco BRL Paisley, UK). Treated cells were then photographed using a phase contrast microscope.
JAR cells were treated for 24 hours as described in Example 6. Floating cells were harvested and chromosomal DNA was extracted according to standard techniques (Liu et al., Cell 86:147-157 (1996)). Purified DNA was then analyzed by agarose gel electrophoresis on a 2% agarose gel. Following electrophoresis the gel was stained with 0.5 μg/ml ethidium bromide.

MDM2 [2] = conditions: JAR and SJSA cells, 100-400 nM, Lipofectin; cited from earlier work
[3] = tested on: human colon cancer LS174T xenografts; assay: Tumor growth in nude mice bearing LS174T xenografts
LS174T cells = assay: LS174T cell growth by trypan blue viability staining; type: cell-based, human; conditions: 72 hr, Lipofectin
Source text: (§1) Chemicals and Reagents. Cell culture media and phosphate-buffered saline (PBS) were obtained from Sigma Chemical Co. (St. Louis, Mo.). Fetal bovine serum (FBS), antibodies against p53 and p21, Lipofectin, trypsin, penicillin-streptomycin, and trypan blue stain were purchased from GIBCO-BRL (Grand Island, N.Y.). The anti-human-MDM2 monoclonal antibody (Chen L. et al., Proc Natl Acad Sci USA, 95: 195-200, 1998; Chen L. et al., Mol. Med. 5: 21-34, 1999) was kindly provided by J. Chen (Moffitt Cancer Center, Tampa, Fla.). Chemotherapeutic agents adriamycin and 5-fluorouracil (5-FU) were obtained from Sigma. […] The MDM2, p53 and p21 levels in cultured cells were analyzed by using the methods described previously (earlier (Chen L. et al., Proc Natl Acad Sci USA, 95: 195-200, 1998; Chen L. et al., Mol. Med. 5: 21-34, 1999; Wang H. et al., Int J. Oncol. 15: 653-660, 1999). In brief, cell lysate containing identical amounts of total protein were fractionated by SDS-PAGE and transferred to Bio-Rad Trans-Blot nitrocellulose membranes (Bio-Rad Laboratories, Hercules, Calif., USA). The nitrocellulose membrane was then incubated with blocking buffer (PBS containing 0.1% Tween 20 and 5% non-fat milk) for 1 hr at room temperature and washed with the washing buffer (PBS containing 0. […]

[4] = tested on: MDM2, p53 and p21 protein levels in LS174T cells; assay: Western blot of MDM2, p53 and p21 in LS174T cells; type: cell-based, human; conditions: up to 500 nM, 24 hr, Lipofectin
DLD-1 cells = assay: DLD-1 cell growth by trypan blue viability staining; type: cell-based, human; conditions: 72 hr, Lipofectin
Source text: as §1

[5] = mice bearing LS174T xenografts
[6] = tested on: human colon cancer DLD-1 xenografts; assay: Tumor growth in nude mice bearing DLD-1 xenografts; type: in vivo
[7] = tested on: MDM2, p53 and p21 protein levels in DLD-1 cells; assay: Western blot of MDM2, p53 and p21 in DLD-1 cells; type: cell-based, human
Source text: (§2) Chemicals and Reagents. Cell culture media and phosphate-buffered saline (PBS) were obtained from Sigma Chemical Co. (St. Louis, Mo.). Fetal bovine serum (FBS), antibodies against p53 and p21, Lipofectin, trypsin, penicillin-streptomycin, and trypan blue stain were purchased from GIBCO-BRL (Grand Island, N.Y.). The anti-human-MDM2 monoclonal antibody (Chen L. et al., Proc Natl Acad Sci USA, 95: 195-200, 1998; Chen L. et al., Mol. Med. 5: 21-34, 1999) was kindly provided by J. Chen (Moffitt Cancer Center, Tampa, Fla.). Chemotherapeutic agents adriamycin and 5-fluorouracil (5-FU) were obtained from Sigma. Natural product topoisomerase I inhibitor 10-hydroxycamptothecin (HCPT) was obtained from the Midwest Co. (Beijing, China) with the purity of the drug being greater than 98% (Zhang R. et al., Cancer Chemother Pharm 41: 257-267, 1998). Cell Culture. The tumor cell lines, LS174T and DLD-1 were obtained from the American Type Culture Collection (Rockville, Md.) and cultured according to their instructions. LS 174T cells were cultured in MEM with 0.1 mM nonessential amino acids and Earle's balanced salt solution containing 10% FBS and DLD-1 cells in RPMI 1640 medium containing 10% FBS. All media included 1% penicillin/streptomycin. […] Cells were incubated with Oligos AS or ASM at various concentrations for 72 hr, in the presence of Lipofectin (7 μg/ml). […] Western Blot Analysis. The MDM2, p53 and p21 levels in cultured cells were analyzed by using the methods described previously (earlier (Chen L. et al., Proc Natl Acad Sci USA, 95: 195-200, 1998; Chen L. et al., Mol. Med. 5: 21-34, 1999; Wang H. et al., Int J. Oncol. 15: 653-660, 1999). In brief, cell lysate containing identical amounts of total protein were fractionated by SDS-PAGE and transferred to Bio-Rad Trans-Blot nitrocellulose membranes (Bio-Rad Laboratories, Hercules, Calif., USA). The nitrocellulose membrane was then incubated with blocking buffer (PBS containing 0.1% Tween 20 and 5% non-fat milk) for 1 hr at room temperature and washed with the washing buffer (PBS containing 0. 1% Tween 20) for 5 min twice. The membrane was incubated with primary (anti-MDM2, anti-p53, or anti-p21) antibody overnight at 4° C. or for 1 hr at room temperature with gentle shaking. The membrane was washed with the washing buffer for 15 min and then twice for 5 min, and then incubated with 1:5000 diluted goat anti-mouse IgG-horse radish peroxidase conjugated antibody (Bio-Rad, Hercules, Calif.) for 1 hr at room temperature. After washing as described above the protein of interest was detected by ECL reagents from Amersham (Arlington Height, Ill.). Results. LS174T Model. In vitro inhibition of MDM2 expression by Oligo AS was shown in a sequence-specific, increasing dose-dependent manner (FIG. 19). […] Control oligonucleotide, Oligo ASM had no effect on MDM2, p53 or p21 protein levels at 500 nM, the highest concentration tested in the study.
Following in vitro combination treatment of Oligos and chemotherapeutic agents HCPT, adriamycin, and 5-FU, the protein levels of MDM2, p53 and p21 were determined in DLD-1 cells. Cells were incubated with 200 nM Oligo in the presence of Lipofectin for 24 hr, followed by addition of various concentrations of chemotherapeutic agents and incubation for an additional 24 hr.

[8] = tested on: MDM2, p53 and p21 protein levels in LS174T cells; assay: Western blot of MDM2, p53 and p21 in LS174T cells; type: cell-based, human; conditions: 400 nM Oligo 24 hr
Source text: as §2
Following in vitro combination treatment of Oligos and chemotherapeutic agents HCPT, adriamycin, and 5-FU, the protein levels of MDM2, p53 and p21 were determined in LS174T cells. Cells were incubated with 400 nM Oligo in the presence of Lipofectin for 24 hr, followed by addition of various concentrations of chemotherapeutic agents and incubation for additional 24 hr.

[9] = mice bearing DLD-1 xenografts
[10] = day 3, oligo 20, HCPT 3, 5-FU 10 mg/kg/day
[11] = day 6, oligo 20, HCPT 3, 5-FU 10 mg/kg/day
[12] = day 9, oligo 20, HCPT 3, 5-FU 10 mg/kg/day
[13] = day 12, oligo 20, HCPT 3, 5-FU 10 mg/kg/day
[14] = day 15, oligo 20, HCPT 3, 5-FU 10 mg/kg/day

With “K: control oligonucleotide complementary to an ion channel, 5′-CAGAGCCTTCATCTTCCCAG-3′; SEQ ID NO:6 (chemistry not given here)” as the substance, how does the “nuclear p53 staining” value (p53) read?
Its value is “did not induce p53”.

And the “rate of DNA synthesis (BrdU incorporation)” value (DNA synthesis)?
Its value is “not observed”.

And the “inhibition of MDM2 expression” value (MDM2 [1])?
The value was “not observed”.

For “M4: mismatch control oligonucleotide of AS5 with four mismatches, 5′-GATGACTCACACCATCATGG-3′; SEQ ID NO:5 (listed as DNA, chemistry not given here) [Oligo M4]”, which “cell death / apoptosis morphology” value (JAR cells) is on record?
Its value is “significantly less apoptosis”.

And the “inhibition of MDM2 expression” value (MDM2 [1])?
The value was “not observed”.

And the “decrease of MDM2 protein levels” value (MDM2 [2])?
The value was “no effect”.

What does the source list for “Oligo ASM: mismatched control of Oligo AS, 5′-UGTCACCCTTTTTCATUCAC-3′; SEQ ID NO:50 (chemistry not given here)”?
effect of combination treatment on tumor growth [3]: no significant effect; xenograft pathology (tumor histology) [3]: indistinguishable histologically; effect on in vivo tumor growth ([3]; daily ip dose 20 mg/kg): minimal effect; Ratio (%) of % T:C with oligo to % T:C without oligo ([2]/[1] or [3]/[1]) ([3]; day 3): 99%; Growth ratio % T:C (mean tumor mass of treated group vs saline control) [3, 10]: 98.6%; Ratio (%) of % T:C with oligo to % T:C without oligo ([2]/[1] or [3]/[1]) ([3]; day 6): 105%; Growth ratio % T:C (mean tumor mass of treated group vs saline control) [3, 11]: 104.9%; Ratio (%) of % T:C with oligo to % T:C without oligo ([2]/[1] or [3]/[1]) ([3]; day 9): 70%; Growth ratio % T:C (mean tumor mass of treated group vs saline control) [3, 12]: 69.7%; Ratio (%) of % T:C with oligo to % T:C without oligo ([2]/[1] or [3]/[1]) ([3]; day 12): 82%; Growth ratio % T:C (mean tumor mass of treated group vs saline control) [3, 13]: 81.5%; Ratio (%) of % T:C with oligo to % T:C without oligo ([2]/[1] or [3]/[1]) ([3]; day 15): 79%; Growth ratio % T:C (mean tumor mass of treated group vs saline control) [3, 14]: 79.4%; Ratio (%) of % T:C with oligo to % T:C without oligo ([2]/[1] or [3]/[1]) ([3]; day 18): 72%; Growth ratio % T:C (mean tumor mass of treated group vs saline control) ([3]; day 18 (end of experiment), oligo 20, HCPT 3, 5-FU 10 mg/kg/day): 73.3%; Ratio (%) of % T:C with oligo to % T:C without oligo ([2]/[1] or [3]/[1]) ([3]; day 18, listed as ASM): 73%; effect on tumor cell growth (LS174T cells): no significant effect; effect on MDM2, p53 and p21 protein levels [4]: no effect; effect on tumor cell growth (DLD-1 cells): no significant effect; Survival Rates of Animals ([5]; day 3): 100%; Survival Rates of Animals ([5]; day 6): 100%; Survival Rates of Animals ([5]; day 9): 100%; Survival Rates of Animals ([5]; day 12): 100%; Survival Rates of Animals ([5]; day 15): 100%; Survival Rates of Animals ([5]; day 18): 100%; effect of combination treatment on tumor growth [6]: no significant effect; effect on in vivo tumor growth ([6]; 20 mg/kg/day): minimal effect; Ratio (%) of % T:C with oligo to % T:C without oligo ([2]/[1] or [3]/[1]) ([6]; day 3): 82%; Growth ratio % T:C [6, 10]: 81.5%; Ratio (%) of % T:C with oligo to % T:C without oligo ([2]/[1] or [3]/[1]) ([6]; day 6): 88%; Growth ratio % T:C [6, 11]: 87.5%; Ratio (%) of % T:C with oligo to % T:C without oligo ([2]/[1] or [3]/[1]) ([6]; day 9): 70%; Growth ratio % T:C [6, 12]: 79.3%; Ratio (%) of % T:C with oligo to % T:C without oligo ([2]/[1] or [3]/[1]) ([6]; day 12): 66%; Growth ratio % T:C [6, 13]: 66.4%; Ratio (%) of % T:C with oligo to % T:C without oligo ([2]/[1] or [3]/[1]) ([6]; day 15): 79%; Growth ratio % T:C [6, 14]: 79.3%; Ratio (%) of % T:C with oligo to % T:C without oligo ([2]/[1] or [3]/[1]) ([6]; day 18): 81%; Growth ratio % T:C ([6]; day 18, oligo 20, HCPT 3, 5-FU 10 mg/kg/day): 81.0%; Ratio (%) of % T:C with oligo to % T:C without oligo ([2]/[1] or [3]/[1]) ([6]; day 21): 76%; Growth ratio % T:C ([6]; day 21 (end of experiment), oligo 20, HCPT 3, 5-FU 10 mg/kg/day): 76.0%; effect on MDM2, p53 or p21 protein levels [7]: no effect; MDM2, p53 and p21 protein levels, oligo pre-treatment then 5-FU ([7]; 200 nM Oligo 24 hr, then 5-FU 24 hr): minimal effect; MDM2 and p21 protein levels, oligo pre-treatment then HCPT ([7]; 200 nM Oligo 24 hr, then HCPT 24 hr): minimal effect; MDM2 and p21 protein levels, oligo pre-treatment then adriamycin ([7]; 200 nM Oligo 24 hr, then adriamycin 24 hr): minimal effect; MDM2, p53 and p21 protein levels, oligo pre-treatment then 5-FU ([8]; then 5-FU 24 hr): minimal effect; MDM2, p53 and p21 protein levels, oligo pre-treatment then HCPT ([8]; then HCPT 24 hr): minimal effect; MDM2, p53 and p21 protein levels, oligo pre-treatment then adriamycin ([8]; then adriamycin 24 hr): minimal effect; Survival Rates of Animals ([9]; day 3): 100%; Survival Rates of Animals ([9]; day 6): 100%; Survival Rates of Animals ([9]; day 9): 100%; Survival Rates of Animals ([9]; day 12): 100%; Survival Rates of Animals ([9]; day 15): 100%; Survival Rates of Animals ([9]; day 18): 100%; Survival Rates of Animals ([9]; day 21): 66.7%

— patent publication US6946447B2, “MDM2-specific antisense oligonucleotides” (Hybridon, Inc., priority 1997, dated 2005)
